Counter-ions that a name gives are not always drawn.

In the case of `OC1CCN(c2nc3ccccc3n2C2CCN(C3(c4ccccc4)CCCCCC3)CC2)CC1` (as salt: HCl), the melting point lay within 208 to 212 °C.

In turn, `c1ccc(C2(N3CCC(n4c(N5CCCC5)nc5ccccc54)CC3)CCCCCC2)cc1` (as salt: HCl) gave a melting point of 178 to 181 °C.

Regarding `CSc1nc2ccccc2n1C1CCN(C2(c3ccccc3)CCCCCC2)CC1` (as salt: HCl), the melting point is 168 to 171 °C.

`c1ccc(C2(N3CCC(n4c(NC5CCNCC5)nc5ccccc54)CC3)CCCCCC2)cc1` (as salt: HCl) displayed a melting point of 231 to 235 °C.

`NC1CCN(c2nc3ccccc3n2C2CCN(C3(c4ccccc4)CCCCCC3)CC2)CC1` (as salt: HCl) came in with a melting point of 225 to 228 °C.

In turn, `c1ccc(C2(N3CCC(n4c(N5CCCCC5)nc5ccccc54)CC3)CCCCCC2)cc1` (as salt: HCl) gave a melting point of 177 to 180 °C.

Take `NCC(=O)Nc1nc2ccccc2n1C1CCN(C2(c3ccccc3)CCCCCCC2)CC1` (as salt: HCl): the melting point fell in the range of 217 to 221 °C.

In turn, `CS(=O)(=O)c1nc2ccccc2n1C1CCN(C2(c3ccccc3)CCCCCC2)CC1` (as salt: HCl) returned a melting point of 155 to 158 °C.

`c1ccc(CN2CCN(c3nc4ccccc4n3C3CCN(C4(c5ccccc5)CCCCCC4)CC3)CC2)cc1` (as salt: HCl): the melting point fell in the range of 139 to 143 °C.

Take `N=C(N)NCCNc1nc2ccccc2n1C1CCN(C2(c3ccccc3)CCCCCC2)CC1` (as salt: salt): the melting point lay within 215 to 218 °C.

The compound `Clc1nc2ccccc2n1C1CCN(C2(c3ccccc3)CCCCCC2)CC1` (as salt: HCl) came in with a melting point of 153 to 156 °C.

In turn, `c1ccc(N2CCN(c3nc4ccccc4n3C3CCN(C4(c5ccccc5)CCCCCC4)CC3)CC2)cc1` (as salt: HCl) came in with a melting point of 188 to 192 °C.

`ON=C1CCN(c2nc3ccccc3n2C2CCN(C3(c4ccccc4)CCCCCC3)CC2)CC1` (as salt: fumaric acid salt): the melting point lay in the range of 201 to 204 °C.

Compound `c1ccc(C2(N3CCC(n4c(OC5CCNCC5)nc5ccccc54)CC3)CCCCCC2)cc1` (as salt: HCl) displayed a melting point of 114 to 118 °C.

The compound `c1ccc(C2(N3CCC(n4c(N5CCOCC5)nc5ccccc54)CC3)CCCCCC2)cc1` (as salt: HCl) registered a melting point of 172 to 176 °C.

Compound `NCCOc1nc2ccccc2n1C1CCN(C2(c3ccccc3)CCCCCC2)CC1` (as salt: HCl) returned a melting point of 180 to 184 °C.

In the case of `CCCCCNc1nc2ccccc2n1C1CCN(C2(c3ccccc3)CCCCCC2)CC1` (as salt: HCl), the melting point is 156 to 159 °C.

As to `c1ccc(C2(N3CCC(n4c(N5CCNCC5)nc5ccccc54)CC3)CCCCCC2)cc1` (as salt: HCl), the melting point was 159 to 163 °C.

In turn, `CNC(C)Nc1nc2ccccc2n1C1CCN(C2(c3ccccc3)CCCCCC2)CC1` (stereo not shown) (as salt: HCl) registered a melting point of 173 to 177 °C.

In turn, `O=C1CCN(c2nc3ccccc3n2C2CCN(C3(c4ccccc4)CCCCCC3)CC2)CC1` (as salt: HCl) returned a melting point of 168 to 172 °C.

`CN(C)CCNc1nc2ccccc2n1C1CCN(C2(c3ccccc3)CCCCCC2)CC1` (as salt: HCl) yielded a melting point of 188 to 192 °C.

With `NCCNc1nc2ccccc2n1C1CCN(C2(c3ccccc3)CCCCCC2)CC1` (as salt: HCl), the melting point is 228 to 232 °C.

One may read the melting point as the temperature of the solid-liquid transition.

(Values after patent US20030109549A1 (published 2003).)
